Our source for the Ki values is patent US6689790B2, “Substituted triazolopyridine compounds” (Hoffmann-La Roche Inc., priority 2001, dated 2004).

The structures appear in SMILES notation.

T1 sequence (P29274 whole entry): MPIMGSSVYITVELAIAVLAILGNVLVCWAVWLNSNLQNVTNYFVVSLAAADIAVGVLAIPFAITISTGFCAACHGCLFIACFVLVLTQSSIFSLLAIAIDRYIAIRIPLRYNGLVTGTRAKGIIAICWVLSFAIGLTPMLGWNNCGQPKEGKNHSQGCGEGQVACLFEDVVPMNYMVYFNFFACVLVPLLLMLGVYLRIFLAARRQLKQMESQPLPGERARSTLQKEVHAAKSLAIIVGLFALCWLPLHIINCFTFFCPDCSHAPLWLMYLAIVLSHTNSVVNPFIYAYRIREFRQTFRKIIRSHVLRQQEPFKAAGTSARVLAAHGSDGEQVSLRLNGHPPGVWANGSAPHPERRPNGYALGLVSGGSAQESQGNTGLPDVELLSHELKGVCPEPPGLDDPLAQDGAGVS

The test addresses T1, human adenosine A2A receptor (Homo sapiens, UniProt P29274).
T1 construct: expressed in transfected cells; host or cells: CHO cells, semliki forest virus expression system; washed membranes
As to the kind of experiment: [3H]-SCH-58261 binding assay, human adenosine A2A receptor (CHO cell membranes, SPA). The note with it: [3H]-SCH-58261 displacement; list of examples 10-108; read-out: hA2a Ki. The method, then:
Human Adenosine A2A Receptor
The human adenosine A2A receptor was recombinantly expressed in chinese hamster ovary (CHO) cells using the semliki forest virus expression system. Cells were harvested, washed twice by centrifugation, homogenized and again washed by centrifugation. The final washed membrane pellet was suspended in a Tris (50 mM) buffer containing 120 mM NaCl, 5 mM KCl, 2 mM CaCl2 and 10 mM MgCl2 (pH 7.4) (buffer A). […] Compounds were tested at 10 concentrations from 10 μM-0.3 nM. All assays were conducted in duplicate and repeated at least two times. Assay plates were incubated for 1 hour at room temperature before centrifugation and then bound ligand determined using a Packard Topcount scintillation counter. IC50 values were calculated using a non-linear curve fitting program and Ki values calculated using the Cheng-Prussoff equation.
Broadly, the Ki is a dissociation constant, usually derived from enzyme kinetics or from competition with a known ligand. Consider `COCC1CCCN1C(=O)c1cc(N)c2nc(-c3ccccc3)nn2c1` (stereo in doubt) [Example 75, (8-Amino-2-phenyl-[1,2,4]triazolo[1,5-a]pyridin-6-yl)-((S)-2-methoxymethyl-pyrrolidin-1-yl)-methanone], for which the Ki stood at 413 nM.

As to `COC[C@@H]1CCCN1C(=O)c1cc(N)c2nc(-c3ccc(C)o3)nn2c1` (stereo in doubt) [Example 86, [8-Amino-2-(5-methyl-furan-2-yl)-[1,2,4]triazolo[1,5-a]pyridin-6-yl]-(2-methoxymethyl-pyrrolidin-1-yl)-methanone], the Ki came out at 230 nM.

Turning to `COCC1CCCN1C(=O)c1cc(N)c2nc(-c3ccc(C)s3)nn2c1` (stereo in doubt) [Example 97, [8-Amino-2-(5-methyl-thiophen-2-yl)-[1,2,4]triazolo[1,5-a]pyridin-6-yl]-((S)2-methoxymethyl-pyrrolidin-1-yl)-methanone], the inhibition constant (Ki) was found to be 428 nM.

Turning to `Nc1cc(C(=O)N2CCCCC2)cn2nc(-c3ccccn3)nc12` [Example 27, (8-Amino-2-pyridin-2-yl-[1,2,4]triazolo[1,5-a]pyridin-6-yl)-piperidin-1-yl-methanone], the Ki came to 548 nM.

For the compound `CC1CCCN1C(=O)c1cc(N)c2nc(-c3ccccn3)nn2c1` (centres unmarked) [Example 28, (8-Amino-2-pyridin-2-yl-[1,2,4]triazolo[1,5-a]pyridin-6-yl)-(2-methyl-pyrrolidin-1-yl)-methanone], the Ki came to 369 nM.

Take `CCN(CC)C(=O)C1CCCN(C(=O)c2cc(N)c3nc(-c4ccccn4)nn3c2)C1` (centres unmarked) [Example 29, 1-(8-Amino-2-pyridin-2-yl-[1,2,4]triazolo[1,5-a]pyridine-6-carbonyl)-piperidine-3-carboxylic acid diethylamide]: the Ki turned out to be 594 nM.

Turning to `CC1CCCN(C(=O)c2cc(N)c3nc(-c4ccccn4)nn3c2)C1` (centres unmarked) [Example 30, (8-Amino-2-pyridin-2-yl-[1,2,4]triazolo[1,5-a]pyridin-6-yl)-(3-methyl-piperidin-1-yl)-methanone], the Ki is 578 nM.

Consider `CCCN(C)C(=O)c1cc(N)c2nc(-c3ccccn3)nn2c1` [Example 31, 8-Amino-2-pyridin-2-yl-[1,2,4]triazolo[1,5-a]pyridine-6-carboxylic acid methyl-propyl-amide], for which the Ki is 796 nM.

On to `CN(CCc1ccccc1)C(=O)c1cc(N)c2nc(-c3ccccn3)nn2c1` [Example 32, 8-Amino-2-pyridin-2-yl-[1,2,4]triazolo[1,5-a]pyridine-6-carboxylic acid methyl-phenethyl-amide], for which the Ki is 387 nM.

In the case of `CCN(CC)C(=O)c1cc(N)c2nc(-c3ccco3)nn2c1` [Example 33, 8-Amino-2-furan-2-yl-[1,2,4]triazolo[1,5-a]pyridine-6-carboxylic acid diethylamide], the Ki was 422 nM.

With `CC(C)N(Cc1ccccc1)C(=O)c1cc(N)c2nc(-c3ccco3)nn2c1` [Example 36, 8-Amino-2-furan-2-yl-[1,2,4]triazolo[1,5-a]pyridine-6-carboxylic acid benzyl-isopropyl-amide], the Ki worked out at 229 nM.

In the case of `CCCN(CCC)C(=O)c1cc(N)c2nc(-c3ccco3)nn2c1` [Example 38, 8-Amino-2-furan-2-yl-[1,2,4]triazolo[1,5-a]pyridine-6-carboxylic acid dipropylamide], the Ki came to 370 nM.

Consider `CCN(CC)C(=O)C1CCCN(C(=O)c2cc(N)c3nc(-c4ccco4)nn3c2)C1` (centres unmarked) [Example 40, 1-(8-Amino-2-furan-2-yl-[1,2,4]triazolo[1,5-a]pyridine-6-carbonyl)-piperidine-3-carboxylic acid diethylamide], for which the Ki stood at 371 nM.

Take `CN(C)C(=O)CN(C)C(=O)c1cc(N)c2nc(-c3ccco3)nn2c1` [Example 44, 8-Amino-2-furan-2-yl-[1,2,4]triazolo[1,5-a]pyridine-6-carboxylic acid dimethylcarbamoyl-methyl-methyl-amide]: the inhibitory constant (Ki) came out at 343 nM.

Consider `CCN(CCOC)C(=O)c1cc(N)c2nc(-c3ccco3)nn2c1` [Example 45, 8-Amino-2-furan-2-yl-[1,2,4]triazolo[1,5-a]pyridine-6-carboxylic acid ethyl-(2-methoxy-ethyl)-amide], for which the Ki stood at 506 nM.

For the compound `CCCN(C)C(=O)c1cc(N)c2nc(-c3ccco3)nn2c1` [Example 47, 8-Amino-2-furan-2-yl-[1,2,4]triazolo[1,5-a]pyridine-6-carboxylic acid methyl-propyl-amide], the Ki was found to be 241 nM.

With `Nc1cc(C(=O)N2CCSCC2)cn2nc(-c3ccco3)nc12` [Example 49, (8-Amino-2-furan-2-yl-[1,2,4]triazolo[1,5-a]pyridin-6-yl)-thiomorpholin-4-yl-methanone], the Ki turned out to be 638 nM.

Turning to `CN(CCc1ccccc1)C(=O)c1cc(N)c2nc(-c3ccco3)nn2c1` [Example 50, 8-Amino-2-furan-2-yl-[1,2,4]triazolo[1,5-a]pyridine-6-carboxylic acid methyl-phenethyl-amide], the Ki was found to be 251 nM.

Regarding `Nc1cc(C(=O)N2CCCCC2)cn2nc(-c3cccs3)nc12` [Example 52, (8-Amino-2-thiophen-2-yl-[1,2,4]triazolo[1,5-a]pyridin-6-yl)-piperidin-1-yl-methanone], the Ki was determined as 353 nM.

`CC1CCCN1C(=O)c1cc(N)c2nc(-c3cccs3)nn2c1` (centres unmarked) [Example 53, (8-Amino-2-thiophen-2-yl-[1,2,4]triazolo[1,5-a]pyridin-6-yl)-(2-methyl-pyrrolidin-1-yl)-methanone]: the Ki worked out at 233 nM.

Consider `CCCN(CCC)C(=O)c1cc(N)c2nc(-c3cccs3)nn2c1` [Example 54, 8-Amino-2-thiophen-2-yl-[1,2,4]triazolo[1,5-a]pyridine-6-carboxylic acid dipropylamide], for which the Ki worked out at 552 nM.

As for `CC1CCCCN1C(=O)c1cc(N)c2nc(-c3cccs3)nn2c1` (centres unmarked) [Example 55, (8-Amino-2-thiophen-2-yl-[1,2,4]triazolo[1,5-a]pyridin-6-yl)-(2-methyl-piperidin-1-yl)-methanone], the Ki was found to be 260 nM.

Regarding `CCN(CC)C(=O)C1CCCN(C(=O)c2cc(N)c3nc(-c4cccs4)nn3c2)C1` (centres unmarked) [Example 56, 1-(8-Amino-2-thiophen-2-yl-[1,2,4]triazolo[1,5-a]pyridine-6-carbonyl)-piperidine-3-carboxylic acid diethylamide], the Ki turned out to be 684 nM.

`COC[C@H]1CCCN1C(=O)c1cc(N)c2nc(-c3cccs3)nn2c1` [Example 57, (8-Amino-2-thiophen-2-yl-[1,2,4]triazolo[1,5-a]pyridin-6-yl)-(2-R-methoxymethyl-pyrrolidin-1-yl)-methanone]: the Ki amounted to 242 nM.

In the case of `COC[C@@H]1CCCN1C(=O)c1cc(N)c2nc(-c3cccs3)nn2c1` [Example 58, (8-Amino-2-thiophen-2-yl-[1,2,4]triazolo[1,5-a]pyridin-6-yl)-(2-S-methoxymethyl-pyrrolidin-1-yl)-methanone], the Ki is 892 nM.

In the case of `NC(=O)[C@H]1CCCN1C(=O)c1cc(N)c2nc(-c3cccs3)nn2c1` [Example 59, 1-(8-Amino-2-thiophen-2-yl-[1,2,4]triazolo[1,5-a]pyridine-6-carbonyl)-pyrrolidine-2-R-carboxylic acid amide], the Ki came to 215 nM.
